Values quoted from earlier work in patent US9161933B2, “Solid pharmaceutical composition comprising amlodipine and losartan and process for producing same” (HANMI SCIENCE CO., LTD, priority 2009, dated 2015).

Conditions: after food absorption

CCCCc1nc(Cl)c(CO)n1Cc1ccc(-c2ccccc2-c2nn[nH]n2)cc1 [losartan, 2-butyl-4-chloro-1-[[2′-(1H-tetrazol-5-yl)[1,1′-biphenyl]-4-yl]methyl]-1H-imidazol-5-methanol]
reduction of Cmax of losartan: about 10%
